From ChEMBL document CHEMBL4007424, “Design and Synthesis of Enantiomerically Pure Decahydroquinoxalines as Potent and Selective κ-Opioid Receptor Agonists with Anti-Inflammatory Activity in Vivo” (J Med Chem, 2017) come the findings set out here.

pEC50, pKi: −log10 of the molar value.

Usually pEC50 stands for the negative decadic logarithm of the EC50, by convention in mol/L. For orientation: pKi means the Ki on a negative log10 scale, so that one unit is a factor of ten. The term inhibition denotes the change of the read-out against control, counted positive when it falls. Read a low inhibition as little suppression.

Sequence of Mu-type opioid receptor (P97266 whole entry): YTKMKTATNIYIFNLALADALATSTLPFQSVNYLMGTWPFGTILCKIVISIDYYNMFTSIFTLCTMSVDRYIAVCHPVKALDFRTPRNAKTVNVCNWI
Sequence of Kappa-type opioid receptor (Cavia porcellus, UniProt P41144) (P41144 whole entry): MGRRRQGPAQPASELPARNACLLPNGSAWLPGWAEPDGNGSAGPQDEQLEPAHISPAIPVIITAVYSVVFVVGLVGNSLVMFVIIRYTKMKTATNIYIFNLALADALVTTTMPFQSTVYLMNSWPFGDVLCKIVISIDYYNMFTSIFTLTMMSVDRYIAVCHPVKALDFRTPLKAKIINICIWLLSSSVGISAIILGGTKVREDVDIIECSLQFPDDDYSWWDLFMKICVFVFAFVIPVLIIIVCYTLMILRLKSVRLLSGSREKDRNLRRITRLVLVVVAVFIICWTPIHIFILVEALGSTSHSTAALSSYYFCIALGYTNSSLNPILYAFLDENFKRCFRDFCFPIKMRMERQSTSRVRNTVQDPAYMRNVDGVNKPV
Sequence of Mu-type opioid receptor (Cavia porcellus) (P97266 whole entry): as the sequence (P97266 whole entry) above

For one assay, the target named is T1, Kappa-type opioid receptor (Homo sapiens, UniProt P41145). As to the kind of experiment: Agonist activity at recombinant human kappa-type opioid receptor expressed in HEK293 cells after 30 mins by [35S]GTPgammaS binding assay. It is filed as functional, cell-based.
T1 sequence (P41145 whole entry): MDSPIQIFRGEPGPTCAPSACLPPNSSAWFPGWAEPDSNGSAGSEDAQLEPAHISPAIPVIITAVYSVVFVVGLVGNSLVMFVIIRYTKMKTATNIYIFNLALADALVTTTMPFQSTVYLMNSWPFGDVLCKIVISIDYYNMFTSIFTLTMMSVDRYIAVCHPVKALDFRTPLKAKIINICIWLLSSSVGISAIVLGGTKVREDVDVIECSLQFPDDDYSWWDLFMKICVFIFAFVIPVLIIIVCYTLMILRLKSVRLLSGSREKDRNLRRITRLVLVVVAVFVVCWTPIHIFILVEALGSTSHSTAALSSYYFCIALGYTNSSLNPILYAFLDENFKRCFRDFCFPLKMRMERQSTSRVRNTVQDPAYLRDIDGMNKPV
Details: not given
A general note: Binding of GTPγS marks nucleotide exchange on a G protein.
In the case of `COC(=O)N1CCN(C(=O)Cc2cccc(Cl)c2)[C@@H]2[C@@H](N3CC[C@H](O)C3)CCC[C@@H]21`, the pEC50 is 7.82.
Consider `COC(=O)N1CCN(C(=O)Cc2ccc(Cl)c(F)c2)[C@@H]2[C@@H](N3CC[C@H](O)C3)CCC[C@@H]21`, for which the pEC50 is 8.41.
Regarding `COC(=O)N1CCN(C(=O)Cc2ccc(C(F)(F)F)c(Cl)c2)[C@@H]2[C@@H](N3CC[C@H](O)C3)CCC[C@@H]21`, the pEC50 is 9.52.
The same measure, in the same setting: in the case of `O=C(Cc1ccc(Cl)cc1)N1CCN(S(=O)(=O)Cc2ccon2)[C@H]2CCC[C@H](N3CC[C@H](O)C3)[C@H]21` it was 8.16; in that of `CS(=O)(=O)N1CCN(C(=O)Cc2ccc(Cl)c(F)c2)[C@@H]2[C@@H](N3CC[C@H](O)C3)CCC[C@@H]21`, 8.10.

The next assay has as its system Mus musculus. As to the kind of experiment: Antiinflammatory activity in arachidonic acid-induced ear dermatitis ICR mouse model assessed as reduction in ear swelling at 3 mg administered twice tropically 30 mins prior and 15 mins after arachidonic acid addition measured 60 mins post arachidonic acid challenge relative to control. Type of assay: functional.
Details: not given
For the molecule `COC(=O)N1CCN(C(=O)Cc2cccc(Cl)c2)[C@@H]2[C@@H](N3CC[C@H](O)C3)CCC[C@@H]21`, the “inhibition (INH)” value is 55%.
Still for that read-out and setting: in the case of `COC(=O)N1CCN(C(=O)Cc2ccc(Cl)c(F)c2)[C@@H]2[C@@H](N3CC[C@H](O)C3)CCC[C@@H]21` it was 68%.
Consider `CS(=O)(=O)N1CCN(C(=O)Cc2ccc(Cl)c(F)c2)[C@@H]2[C@@H](N3CC[C@H](O)C3)CCC[C@@H]21`, for which the “inhibition (INH)” value stood at 71%.

Target in the next assay: not listed separately
As to the kind of experiment: Displacement of [3H]DPDPE from delta-type opioid receptor in guinea pig brain membranes after 120 mins by solid scintillation counting. It is filed as cell membranes, Cavia porcellus, Membrane.
Details: not given
As for `COC(=O)N1CCN(C(=O)Cc2cccc(Cl)c2)[C@@H]2[C@@H](N3CC[C@H](O)C3)CCC[C@@H]21`, the pKi is 5.95.
Molecule `COC(=O)N1CCN(C(=O)Cc2ccc(Cl)c(F)c2)[C@@H]2[C@@H](N3CC[C@H](O)C3)CCC[C@@H]21` showed a pKi of 6.60.
`COC(=O)N1CCN(C(=O)Cc2ccc(C(F)(F)F)c(Cl)c2)[C@@H]2[C@@H](N3CC[C@H](O)C3)CCC[C@@H]21` showed a pKi of 6.40. This pKi is 0.20 log units lower than that of the molecule before.
On to `O=C(Cc1ccc(Cl)cc1)N1CCN(S(=O)(=O)Cc2ccon2)[C@H]2CCC[C@H](N3CC[C@H](O)C3)[C@H]21`, for which the pKi was 6.06. This pKi is 0.34 log units lower than that of the molecule before.
Consider `CS(=O)(=O)N1CCN(C(=O)Cc2ccc(Cl)c(F)c2)[C@@H]2[C@@H](N3CC[C@H](O)C3)CCC[C@@H]21`, for which the pKi is 6.40.

The species named for the next assay is Sus scrofa. As to the kind of experiment: Displacement of [3H]-(+)-MK 801 from PCP binding site of NMDA receptor in pig brain cortex membranes at 10 uM after 120 mins by solid scintillation counting. It is filed as cell membranes.
Details: not given
`COC(=O)CN1CCN(C(=O)Cc2ccc(Cl)c(Cl)c2)[C@@H]2[C@@H](N3CCCC3)CCC[C@@H]21` yielded an inhibition of 13%.
On the same count and under the same terms, in the case of `O=C(Cc1ccc(Cl)cc1)N1CCN(S(=O)(=O)Cc2ccon2)[C@H]2CCC[C@H](N3CC[C@H](O)C3)[C@H]21` it was 0%.

The target of a further assay is T1, Kappa-type opioid receptor. As to the kind of experiment: Agonist activity at recombinant human kappa-type opioid receptor expressed in HEK293 cells at 1 uM after 30 mins by [35S]GTPgammaS binding assay. It is filed as functional, cell-based.
Details: not given
As to `COC(=O)CN1CCN(C(=O)Cc2ccc(Cl)c(Cl)c2)[C@@H]2[C@@H](N3CCCC3)CCC[C@@H]21`, the Activity was found to be 111%.
Turning to `O=C(Cc1ccc(Cl)cc1)N1CCN(S(=O)(=O)Cc2ccon2)[C@H]2CCC[C@H](N3CC[C@H](O)C3)[C@H]21`, the Activity was determined as 103%.

In another assay the target is Sigma non-opioid intracellular receptor 1 (Cavia porcellus) (UniProt Q60492). As to the kind of experiment: Displacement of [3H]-(+)-pentazocine from sigma1-type […] receptor in guinea pig cortex membranes at 1 uM after 120 mins by solid scintillation counting. Type of assay: cell membranes.
Sequence of Sigma non-opioid intracellular receptor 1 (Cavia porcellus) (Q60492 whole entry): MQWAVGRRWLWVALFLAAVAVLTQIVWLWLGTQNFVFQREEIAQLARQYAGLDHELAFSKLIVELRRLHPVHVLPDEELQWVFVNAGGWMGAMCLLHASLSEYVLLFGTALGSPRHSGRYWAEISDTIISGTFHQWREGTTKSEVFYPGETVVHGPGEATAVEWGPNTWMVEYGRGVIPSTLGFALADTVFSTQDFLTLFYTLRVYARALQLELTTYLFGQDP
Details: not given
Take `COC(=O)CN1CCN(C(=O)Cc2ccc(Cl)c(Cl)c2)[C@@H]2[C@@H](N3CCCC3)CCC[C@@H]21`: the inhibition worked out at 0%.
In the case of `O=C(Cc1ccc(Cl)cc1)N1CCN(S(=O)(=O)Cc2ccon2)[C@H]2CCC[C@H](N3CC[C@H](O)C3)[C@H]21`, the inhibition is 24%.

The species named for the next assay is Rattus norvegicus. As to the kind of experiment: Displacement of [3H]-DTG from sigma 2 receptor in rat liver membranes at 1 uM after 120 mins by scintillation counting. It is filed as cell membranes. Conditions: Membrane. (In general: In a radioligand displacement assay an active substance lowers the binding of a labelled ligand.)
`COC(=O)CN1CCN(C(=O)Cc2ccc(Cl)c(Cl)c2)[C@@H]2[C@@H](N3CCCC3)CCC[C@@H]21` gave an inhibition of 0%.
For `O=C(Cc1ccc(Cl)cc1)N1CCN(S(=O)(=O)Cc2ccon2)[C@H]2CCC[C@H](N3CC[C@H](O)C3)[C@H]21`, the inhibition came out at 0%.

Another assay concerns the target Kappa-type opioid receptor (Cavia porcellus, UniProt P41144). As to the kind of experiment: Displacement of [3H]U-69,593 from kappa-type opioid receptor in guinea pig brain membranes after 120 mins by solid scintillation counting. Type of assay: cell membranes, Membrane.
Details: not given
Molecule `COC(=O)N1CCN(C(=O)Cc2cccc(Cl)c2)[C@@H]2[C@@H](N3CC[C@H](O)C3)CCC[C@@H]21` showed a pKi of 8.77.
Still for that read-out and setting: in the case of `COC(=O)N1CCN(C(=O)Cc2ccc(Cl)c(F)c2)[C@@H]2[C@@H](N3CC[C@H](O)C3)CCC[C@@H]21` it was 8.74; in that of `COC(=O)N1CCN(C(=O)Cc2ccc(C(F)(F)F)c(Cl)c2)[C@@H]2[C@@H](N3CC[C@H](O)C3)CCC[C@@H]21`, 9.57.
On the same count and under the same terms, in the case of `O=C(Cc1ccc(Cl)cc1)N1CCN(S(=O)(=O)Cc2ccon2)[C@H]2CCC[C@H](N3CC[C@H](O)C3)[C@H]21` it was 9.01; in that of `CS(=O)(=O)N1CCN(C(=O)Cc2ccc(Cl)c(F)c2)[C@@H]2[C@@H](N3CC[C@H](O)C3)CCC[C@@H]21`, 8.68.

Another assay concerns the target Mu-type opioid receptor (Cavia porcellus) (UniProt P97266). As to the kind of experiment: Displacement of [3H]DAMGO from mu-type opioid receptor in guinea pig brain membranes at 1 uM after 120 mins by solid scintillation counting. Type of assay: cell membranes. Conditions: Membrane.
In turn, `O=C(Cc1ccc(Cl)cc1)N1CCN(S(=O)(=O)Cc2ccon2)[C@H]2CCC[C@H](N3CC[C@H](O)C3)[C@H]21` came in with an inhibition of 0%.

The next assay has as its system Mus musculus. As to the kind of experiment: Antiinflammatory activity in arachidonic acid-induced ear dermatitis ICR mouse model assessed as reduction in ear swelling at 0.1 mg administered twice tropically 30 mins prior and 15 mins after arachidonic acid addition measured 60 mins post arachidonic acid challenge relative to control. It is filed as functional.
Details: not given
`COC(=O)N1CCN(C(=O)Cc2cccc(Cl)c2)[C@@H]2[C@@H](N3CC[C@H](O)C3)CCC[C@@H]21`: the “inhibition (INH)” value is -15%.
Still for that read-out and setting: in the case of `COC(=O)N1CCN(C(=O)Cc2ccc(Cl)c(F)c2)[C@@H]2[C@@H](N3CC[C@H](O)C3)CCC[C@@H]21` it was 2%.
For the molecule `CS(=O)(=O)N1CCN(C(=O)Cc2ccc(Cl)c(F)c2)[C@@H]2[C@@H](N3CC[C@H](O)C3)CCC[C@@H]21`, the “inhibition (INH)” value is 33%.

A further assay addresses Mu-type opioid receptor (Cavia porcellus, UniProt P97266). As to the kind of experiment: Displacement of [3H]DAMGO from mu-type opioid receptor in guinea pig brain membranes after 120 mins by solid scintillation counting. Type of assay: cell membranes, Membrane.
Details: not given
The molecule `COC(=O)N1CCN(C(=O)Cc2cccc(Cl)c2)[C@@H]2[C@@H](N3CC[C@H](O)C3)CCC[C@@H]21` gave a pKi of 6.29.
In the case of `COC(=O)N1CCN(C(=O)Cc2ccc(Cl)c(F)c2)[C@@H]2[C@@H](N3CC[C@H](O)C3)CCC[C@@H]21`, the pKi is 6.26. The pKi values of the last two molecules are within 0.2 log units of each other.
Molecule `COC(=O)N1CCN(C(=O)Cc2ccc(C(F)(F)F)c(Cl)c2)[C@@H]2[C@@H](N3CC[C@H](O)C3)CCC[C@@H]21` gave a pKi of 6.21.
In the case of `CS(=O)(=O)N1CCN(C(=O)Cc2ccc(Cl)c(F)c2)[C@@H]2[C@@H](N3CC[C@H](O)C3)CCC[C@@H]21`, the pKi was 6.51.

Another assay concerns Mus musculus. As to the kind of experiment: Antiinflammatory activity in arachidonic acid-induced ear dermatitis ICR mouse model assessed as reduction in ear swelling at 0.3 mg administered twice tropically 30 mins prior and 15 mins after arachidonic acid addition measured 60 mins post arachidonic acid challenge relative to control. It is filed as functional.
Details: not given
As for `COC(=O)N1CCN(C(=O)Cc2cccc(Cl)c2)[C@@H]2[C@@H](N3CC[C@H](O)C3)CCC[C@@H]21`, the “inhibition (INH)” value was 12%.
For the molecule `COC(=O)N1CCN(C(=O)Cc2ccc(Cl)c(F)c2)[C@@H]2[C@@H](N3CC[C@H](O)C3)CCC[C@@H]21`, the “inhibition (INH)” value amounted to 37%.
`CS(=O)(=O)N1CCN(C(=O)Cc2ccc(Cl)c(F)c2)[C@@H]2[C@@H](N3CC[C@H](O)C3)CCC[C@@H]21`: the “inhibition (INH)” value stood at 43%.

For the next assay, the system named is Mus musculus. As to the kind of experiment: Antiinflammatory activity in arachidonic acid-induced ear dermatitis ICR mouse model assessed as reduction in ear swelling at 1 mg administered twice tropically 30 mins prior and 15 mins after arachidonic acid addition measured 60 mins post arachidonic acid challenge relative to control.
Details: not given
Type of assay: functional.
As to `COC(=O)N1CCN(C(=O)Cc2cccc(Cl)c2)[C@@H]2[C@@H](N3CC[C@H](O)C3)CCC[C@@H]21`, the “inhibition (INH)” value amounted to 44%.
`COC(=O)N1CCN(C(=O)Cc2ccc(Cl)c(F)c2)[C@@H]2[C@@H](N3CC[C@H](O)C3)CCC[C@@H]21`: the “inhibition (INH)” value is 59%.
For `CS(=O)(=O)N1CCN(C(=O)Cc2ccc(Cl)c(F)c2)[C@@H]2[C@@H](N3CC[C@H](O)C3)CCC[C@@H]21`, the “inhibition (INH)” value is on record as 46%.
